# From patent US20260022347A1, “TREATMENT AGENT FOR LUNG ADENOCARCINOMAS” (KEIO UNIVERSITY, priority 2022, published 2026)
# “Also recorded” adds a separate entry of the source.
# Legend:
# [1] = test system: Wnt-dependent (NKX2-1 negative) lung adenocarcinoma organoids, KOR80 and KOR97; experiment: Tumor area of GFP-labeled lung adenocarcinoma organoids transplanted under the renal capsule of immunodeficient mice; format: in vivo; settings: 50 mg/kg C59 orally twice a day, 10 days after transplantation and day 30 to 40; kidneys excised day 40; versus vehicle
# Source text: C59 (CAS No. 1243243-89-1) was used to examine the therapeutic effect of NKX2-1-negative lung adenocarcinoma in vivo.
# FIG. 11 is a schematic view showing a schedule of this experiment. GFP-labeled lung adenocarcinoma organoids were transplanted under the renal capsule of immunodeficient mice. As the lung adenocarcinoma organoids, Wnt-dependent (NKX2-1 negative) lung adenocarcinoma organoids, KOR80 and KOR97, and Wnt-independent (NKX2-1-positive) lung adenocarcinoma organoids, KOR20 and KOR98, were used.
# For 10 days after transplantation and from day 30 to day 40 after transplantation, 50 mg/kg of C59 or vehicle was administered orally twice a day. Subsequently, the mice were euthanized on day 40 after transplantation, and their kidneys were excised and observed. The tumor area was measured as the area of a GFP-positive region.
# In addition, “vehicle” indicates the result of a control given vehicle, and “C59” indicates the result obtained by administering C59. In addition, in FIG. 13, “*” indicates a significant difference at p<0.05, “**” indicates a significant difference at p<0.01, and “N.S.” indicates no significant difference.
# [2] = test system: NKX2-1-negative lung adenocarcinoma organoid strains (KOR189, KOR134); experiment: Growth of NKX2-1-negative lung adenocarcinoma organoids cultured with C59 (organoid area, micrographs); format: cell-based, human
# Source text: Porcupine (PORCN) is an acyl transferase localized to the endoplasmic reticulum which performs palmitoylation of Wnt protein. In this experimental example, the therapeutic effect of NKX2-1-negative lung adenocarcinoma was examined using C59 (CAS No. 1243243-89-1), a Porcupine inhibitor.
# In addition, the number in the upper left corner of each image indicates the percentage of an area occupied by organoids cultured under each condition when an area occupied by organoids cultured in the absence of Wnt-3A is 1.
# [3] = test system: Wnt target genes LGR5 and AXIN2; experiment: Quantitative RT-PCR of Wnt target genes LGR5 and AXIN2 in organoids cultured with C59; format: cell-based, human
# Source text: In FIG. 10, the relative values of the expression levels of each gene with respect to the expression level of the GAPDH gene are shown as relative values, with the expression level in the absence of Wnt-3A (−Wnt) set to 1.
# [4] = presence of Wnt-3A and C59 (+Wnt+C59)
smiles,measurement,setting,value
Cc1cc(-c2ccc(CC(=O)Nc3ccc(-c4cccnc4)cc3)cc2)ccn1 [C59],tumor area (GFP-positive region),[1],significantly reduced the tumor area
same,growth of NKX2-1-negative lung adenocarcinoma organoids,"[2]; absence of Wnt-3A, presence of C59 (-Wnt+C59), KOR189, KOR134",growth inhibition; also recorded: inhibited the growth
same,growth of NKX2-1-negative lung adenocarcinoma organoids after addition of exogenous Wnt-3A to C59 treatment,[2]; [4],counteracted the effect of the C59 treatment
same,"expression levels of Wnt target genes (LGR5, AXIN2)","[3]; -Wnt+C59 relative to -Wnt, normalised to GAPDH, KOR189, KOR134, KOR97",reduced the expression levels
same,expression levels of Wnt target genes after addition of exogenous Wnt-3A to C59 treatment,[3]; [4],restoring the expression levels
